# Measured values from patent US11524938B2, “Aromatic sulfonamide derivatives” (Bayer Pharma Aktiengesellschaft, priority 2016, dated 2022).
# Target: T1, human P2X4 (Homo sapiens, UniProt Q99571)
# T1 sequence (Q99571 1-388): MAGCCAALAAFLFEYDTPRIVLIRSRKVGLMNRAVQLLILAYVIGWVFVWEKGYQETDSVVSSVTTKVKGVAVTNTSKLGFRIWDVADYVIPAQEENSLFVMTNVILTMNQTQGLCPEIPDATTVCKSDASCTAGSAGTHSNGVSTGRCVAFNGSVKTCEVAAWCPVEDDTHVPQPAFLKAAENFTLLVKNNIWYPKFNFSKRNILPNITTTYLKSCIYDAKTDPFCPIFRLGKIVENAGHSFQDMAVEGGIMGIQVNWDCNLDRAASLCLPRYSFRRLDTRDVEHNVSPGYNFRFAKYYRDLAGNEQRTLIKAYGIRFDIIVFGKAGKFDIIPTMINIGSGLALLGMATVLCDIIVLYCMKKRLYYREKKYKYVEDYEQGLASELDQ
# Assay: Human P2X4 HEK Cell FLIPR Assay
# Assay type: cell-based
# Conditions: agonist Bz-ATP at EC80; for Emax: HEK293, HEK293 cells, percentage of maximal inhibition, read-out: Human P2X4 HEK Cells (FLIPR Assay) avg Efficacy [%]; for IC50: HEK293 cells, individual values listed where some fall outside detection range
# Procedure, shortened: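 Calcium flux read by FLIPR for 120 sec after Bz-ATP challenge at EC80 (established each assay day), following 30 min room-temperature compound preincubation in dye-loaded stable human P2X4 HEK293 cells. Peak RFU over basal normalized to agonist control; IC50, maximal inhibition and Hill coefficient from triplicate means.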
Emax [%],IC50 [nM],SMILES
78,31,"CC(C)(O)CCn1cc(-c2ccc(NC(=O)Cc3ccccc3Cl)cc2S(N)(=O)=O)cn1 [Example 287, 2-(2-Chlorophenyl)-N-{4-[1-(3-hydroxy-3-methylbutyl)-1H-pyrazol-4-yl]-3-sulfamoyl-phenyl}acetamide]"
68,275,"Cn1nc(-c2ccc(NC(=O)Cc3ccccc3Cl)cc2S(N)(=O)=O)cc1C(C)(C)O [Example 288, 2-(2-Chlorophenyl)-N-{4-[5-(2-hydroxypropan-2-yl)-1-methyl-1H-pyrazol-3-yl]-3-sulfamoylphenyl}acetamide]"
89,6,"NS(=O)(=O)c1cc(NC(=O)Cc2ccccc2Cl)ccc1-c1cncc(OC(F)F)c1 [Example 289, 2-(2-Chlorophenyl)-N-{4-[5-(difluoromethoxy)pyridin-3-yl]-3-sulfamoylphenyl}acetamide]"
81,36,"COc1cnc(Cl)c(-c2ccc(NC(=O)Cc3ccccc3Cl)cc2S(N)(=O)=O)c1 [Example 290, N-[4-(2-Chloro-5-methoxypyridin-3-yl)-3-sulfamoylphenyl]-2-(2-chlorophenyl)acetamide]"
95,100,"NS(=O)(=O)c1cc(NC(=O)Cc2ccccc2Cl)ccc1-c1cnn(CCO)c1 [Example 291, 2-(2-Chlorophenyl)-N-{4-[1-(2-hydroxyethyl)-1H-pyrazol-4-yl]-3-sulfamoylphenyl}acetamide]"
87,58,"CC(C)(C)c1cc(-c2ccc(NC(=O)Cc3ccccc3Cl)cc2S(N)(=O)=O)n[nH]1 [Example 292, N-[4-(5-tert-Butyl-1H-pyrazol-3-yl)-3-sulfamoylphenyl]-2-(2-chlorophenyl)acetamide]"
75,76,"NS(=O)(=O)c1cc(NC(=O)Cc2ccccc2Cl)ccc1-c1cnn(Cc2ccccc2)c1 [Example 293, N-[4-(1-Benzyl-1H-pyrazol-4-yl)-3-sulfamoylphenyl]-2-(2-chlorophenyl)acetamide]"
75,174,"Cc1cc(-c2ccc(NC(=O)Cc3ccccc3Cl)cc2S(N)(=O)=O)cnn1 [Example 294, 2-(2-Chlorophenyl)-N-[4-(6-methylpyridazin-4-yl)-3-sulfamoylphenyl]acetamide]"
9,> 25000,"NS(=O)(=O)c1cc(NC(=O)Cc2ccccc2Cl)ccc1-c1cccc(C(F)(F)F)n1 [Example 295, 2-(2-Chlorophenyl)-N-{3-sulfamoyl-4-[6-(trifluoromethyl)pyridin-2-yl]phenyl}acetamide]"
87,136,"NS(=O)(=O)c1cc(NC(=O)Cc2ccccc2F)ccc1-c1cnn(C(F)F)c1 [Example 296, N-{4-[1-(Difluoromethyl)-1H-pyrazol-4-yl]-3-sulfamoylphenyl}-2-(2-fluorophenyl)acetamide]"
87,32,"NS(=O)(=O)c1cc(NC(=O)Cc2ccccc2Cl)cnc1-c1cnn(C(F)F)c1 [Example 297, 2-(2-Chlorophenyl)-N-{6-[1-(difluoromethyl)-1H-pyrazol-4-yl]-5-sulfamoylpyridin-3-yl}acetamide]"
104,108,"Cc1cc(-c2ccc(NC(=O)Cc3ccccc3Cl)cc2S(N)(=O)=O)cnc1Cl [Example 298, N-[4-(6-Chloro-5-methylpyridin-3-yl)-3-sulfamoylphenyl]-2-(2-chlorophenyl)acetamide]"
88,203,"NS(=O)(=O)c1cc(NC(=O)Cc2ccccc2Cl)ccc1-c1cnc(NC2CC2)nc1 [Example 299, 2-(2-Chlorophenyl)-N-{4-[2-(cyclopropylamino)pyrimidin-5-yl]-3-sulfamoylphenyl}acetamide]"
100,27,"NS(=O)(=O)c1cc(NC(=O)Cc2ccccc2Cl)ccc1-c1cnn(C2CCOC2)c1 (stereo not shown) [Example 300, 2-(2-Chlorophenyl)-N-{3-sulfamoyl-4-[1-(tetrahydrofuran-3-yl)-1H-pyrazol-4-yl]phenyl}acetamide]"
74,10,"CNc1ncc(-c2ccc(NC(=O)Cc3ccccc3Cl)cc2S(N)(=O)=O)cn1 [Example 301, 2-(2-Chlorophenyl)-N-{4-[2-(methylamino)pyrimidin-5-yl]-3-sulfamoylphenyl}acetamide]"
97,56,"Cn1cc(-c2ncc(NC(=O)Cc3ccccc3Cl)cc2S(N)(=O)=O)cn1 [Example 302, 2-(2-Chlorophenyl)-N-[6-(1-methyl-1H-pyrazol-4-yl)-5-sulfamoylpyridin-3-yl]acetamide]"

Emax [%],IC50 [nM],SMILES
91,97,"NS(=O)(=O)c1cc(NC(=O)Cc2ccccc2Cl)ccc1-c1cnn(CC(F)F)c1 [Example 303, 2-(2-Chlorophenyl)-N-{4-[1-(2,2-difluoroethyl)-1H-pyrazol-4-yl]-3-sulfamoylphenyl}acetamide]"
65,73,"NS(=O)(=O)c1cc(NC(=O)Cc2ccccc2C(F)(F)F)ccc1-c1cncc(C(F)(F)F)c1 [Example 304, N-{3-Sulfamoyl-4-[5-(trifluoromethyl)pyridin-3-yl]phenyl}-2-[2-(trifluoromethyl)phenyl]acetamide]"
49,21,"NS(=O)(=O)c1cc(NC(=O)Cc2ccccc2Cl)cnc1-c1cncc(C(F)(F)F)c1 [Example 305, 2-(2-Chlorophenyl)-N-[3-sulfamoyl-5′-(trifluoromethyl)-2,3′-bipyridin-5-yl]acetamide]"
80,278,"NS(=O)(=O)c1cc(NC(=O)Cc2ccccc2Cl)ccc1-c1cnc(C(F)(F)F)nc1 [Example 306, 2-(2-Chlorophenyl)-N-{3-sulfamoyl-4-[2-(trifluoromethyl)pyrimidin-5-yl]phenyl}acetamide]"
62,115,"NS(=O)(=O)c1cc(NC(=O)Cc2ccccc2Cl)ccc1-c1cncc(OC(F)(F)F)c1 [Example 307, 2-(2-Chlorophenyl)-N-{3-sulfamoyl-4-[5-(trifluoromethoxy)pyridin-3-yl]phenyl}acetamide]"
91,64,"NS(=O)(=O)c1cc(NC(=O)Cc2ccccc2Cl)ccc1-c1cnc(C2CC2)nc1 [Example 308, 2-(2-Chlorophenyl)-N-[4-(2-cyclopropylpyrimidin-5-yl)-3-sulfamoylphenyl]acetamide]"
93,317,"CCOc1ncc(-c2ccc(NC(=O)Cc3ccccc3Cl)cc2S(N)(=O)=O)cn1 [Example 309, 2-(2-Chlorophenyl)-N-[4-(2-ethoxypyrimidin-5-yl)-3-sulfamoylphenyl]acetamide]"
59,86,"CC(C)Nc1ncc(-c2ccc(NC(=O)Cc3ccccc3Cl)cc2S(N)(=O)=O)cn1 [Example 310, 2-(2-Chlorophenyl)-N-{4-[2-(propan-2-ylamino)pyrimidin-5-yl]-3-sulfamoylphenyl}acetamide]"
104,285,"CC(C)Oc1ncc(-c2ccc(NC(=O)Cc3ccccc3Cl)cc2S(N)(=O)=O)cn1 [Example 311, 2-(2-Chlorophenyl)-N-{4-[2-(propan-2-yloxy)pyrimidin-5-yl]-3-sulfamoylphenyl}acetamide]"
69,37,"CCNc1ncc(-c2ccc(NC(=O)Cc3ccccc3Cl)cc2S(N)(=O)=O)cn1 [Example 312, 2-(2-Chlorophenyl)-N-{4-[2-(ethylamino)pyrimidin-5-yl]-3-sulfamoylphenyl}-acetamide]"
82,713,"Cc1ncc(-c2ccc(NC(=O)Cc3ccccc3Cl)cc2S(N)(=O)=O)cn1 [Example 313, 2-(2-Chlorophenyl)-N-[4-(2-methylpyrimidin-5-yl)-3-sulfamoylphenyl]acetamide]"
83,27,"CCCNc1ncc(-c2ccc(NC(=O)Cc3ccccc3Cl)cc2S(N)(=O)=O)cn1 [Example 314, 2-(2-Chlorophenyl)-N-{4-[2-(propylamino)pyrimidin-5-yl]-3-sulfamoylphenyl}-acetamide]"
81,34,"NS(=O)(=O)c1cc(NC(=O)Cc2ccccc2Cl)ccc1-c1cnc(NCC(F)(F)F)nc1 [Example 315, 2-(2-Chlorophenyl)-N-(3-sulfamoyl-4-{2-[(2,2,2-trifluoroethyl)amino]pyrimidin-5-yl}phenyl)acetamide]"
86,362,"NS(=O)(=O)c1cc(NC(=O)Cc2ccccc2Cl)ccc1-c1cnc(OC2CCC2)nc1 [Example 316, 2-(2-Chlorophenyl)-N-{4-[2-(cyclobutyloxy)pyrimidin-5-yl]-3-sulfamoylphenyl}acetamide]"
68,1210,"Cc1nc(Cl)ncc1-c1ccc(NC(=O)Cc2ccccc2Cl)cc1S(N)(=O)=O [Example 317, N-[4-(2-Chloro-4-methylpyrimidin-5-yl)-3-sulfamoylphenyl]-2-(2-chlorophenyl)acetamide]"
43,> 25000,"NS(=O)(=O)c1cc(NC(=O)Cc2ccccc2Cl)ccc1-c1cc(C(F)(F)F)ccn1 [Example 318, 2-(2-Chlorophenyl)-N-{3-sulfamoyl-4-[4-(trifluoromethyl)pyridin-2-yl]phenyl}acetamide]"
